Experimental data published in PubChem BioAssay AID248 (DTP/NCI, 2004).
Several values for one entry are separate records, joined by “and”; a condition that tells them apart may be missing. Equal entries are not always repeated. Toxic doses and inconclusive results are not listed.

Test system: L1210 leukemia ip in BDF1 mice, survival T/C
Experiment: NCI In Vivo Anticancer Drug Screen. Data for tumor model L1210 Leukemia (intraperitoneal) in B6D2F1 (BDF1) mice
Settings: higher = longer survival
Summary of the method: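 Value reflects the ratio of survival in compound-treated mice to survival in vehicle-treated controls, with both groups carrying the same transplanted tumor.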

## N=c1nc2n(cc1F)[C@@H]1O[C@H](CO)[C@@H](O)[C@@H]1O2
endpoint: mean survival time, dose: 100.0 mg/kg/injection, schedule: Q01DX009 (ip), vehicle: Klucel (hydroxypropylcellulose) (HPC)
  T/C: 187 % of control
endpoint: mean survival time, dose: 200.0 mg/kg/injection, schedule: Q01DX009 (ip), vehicle: Klucel (hydroxypropylcellulose) (HPC)
  T/C: 177 % of control
endpoint: mean survival time, dose: 400.0 mg/kg/injection, schedule: Q01DX001 (ip), vehicle: Klucel (hydroxypropylcellulose) (HPC)
  T/C: 113 % of control
endpoint: mean survival time, dose: 400.0 mg/kg/injection, schedule: Q04DX002 (ip), vehicle: Klucel (hydroxypropylcellulose) (HPC)
  T/C: 165 % of control and 173 % of control
endpoint: mean survival time, dose: 600.0 mg/kg/injection, schedule: Q04DX002 (ip), vehicle: Klucel (hydroxypropylcellulose) (HPC)
  T/C: 180 % of control
endpoint: mean survival time, dose: 800.0 mg/kg/injection, schedule: Q01DX001 (ip), vehicle: Klucel (hydroxypropylcellulose) (HPC)
  T/C: 116 % of control
endpoint: mean survival time, dose: 2000.0 mg/kg/injection, schedule: Q01DX001 (ip), vehicle: Klucel (hydroxypropylcellulose) (HPC)
  T/C: 123 % of control
endpoint: mean survival time, dose: 2000.0 mg/kg/injection, schedule: Q01DX001 (ip), vehicle: saline
  T/C: 152 % of control
endpoint: median survival time, dose: 25.0 mg/kg/injection, schedule: Q03HX024 (ip), vehicle: water
  T/C: 255 % of control
endpoint: median survival time, dose: 50.0 mg/kg/injection, schedule: Q01DX009 (ip), vehicle: steriod suspending solution
  T/C: 175 % of control
endpoint: median survival time, dose: 50.0 mg/kg/injection, schedule: Q03HX024 (ip), vehicle: water
  T/C: 610 % of control
endpoint: median survival time, dose: 100.0 mg/kg/injection, schedule: Q01DX009 (ip), vehicle: steriod suspending solution
  T/C: 180 % of control
endpoint: median survival time, dose: 100.0 mg/kg/injection, schedule: Q01DX009 (ip), vehicle: water
  T/C: 190 % of control
endpoint: median survival time, dose: 100.0 mg/kg/injection, schedule: Q03HX024 (ip), vehicle: water
  T/C: 390 % of control
endpoint: median survival time, dose: 200.0 mg/kg/injection, schedule: Q01DX009 (ip), vehicle: steriod suspending solution
  T/C: 205 % of control
endpoint: median survival time, dose: 200.0 mg/kg/injection, schedule: Q01DX009 (ip), vehicle: water
  T/C: 240 % of control
endpoint: median survival time, dose: 400.0 mg/kg/injection, schedule: Q01DX001 (oral), vehicle: water
  T/C: 120 % of control
endpoint: median survival time, dose: 400.0 mg/kg/injection, schedule: Q01DX009 (ip), vehicle: steriod suspending solution
  T/C: 340 % of control
endpoint: median survival time, dose: 400.0 mg/kg/injection, schedule: Q01DX009 (ip), vehicle: water
  T/C: 450 % of control
endpoint: median survival time, dose: 800.0 mg/kg/injection, schedule: Q01DX001 (ip), vehicle: water
  T/C: 150 % of control

## CCCCNS(=O)(=O)c1ccc(Cl)c([N+](=O)[O-])c1
endpoint: mean survival time, dose: 12.5 mg/kg/injection, schedule: Q04DX003 (ip), vehicle: Klucel (hydroxypropylcellulose) (HPC)
  T/C: 95 % of control
endpoint: mean survival time, dose: 25.0 mg/kg/injection, schedule: Q04DX003 (ip), vehicle: Klucel (hydroxypropylcellulose) (HPC)
  T/C: 103 % of control
endpoint: mean survival time, dose: 50.0 mg/kg/injection, schedule: Q04DX003 (ip), vehicle: Klucel (hydroxypropylcellulose) (HPC)
  T/C: 100 % of control
endpoint: mean survival time, dose: 100.0 mg/kg/injection, schedule: Q04DX003 (ip), vehicle: gum acacia
  T/C: 103 % of control
endpoint: mean survival time, dose: 200.0 mg/kg/injection, schedule: Q04DX003 (ip), vehicle: gum acacia
  T/C: 105 % of control

## CC(C)(C)OC(=O)C1=CNCCC1
endpoint: mean survival time, dose: 100.0 mg/kg/injection, schedule: Q01DX001 (ip), vehicle: saline
  T/C: 102 % of control
endpoint: mean survival time, dose: 100.0 mg/kg/injection, schedule: Q04DX003 (ip), vehicle: saline
  T/C: 106 % of control
endpoint: mean survival time, dose: 200.0 mg/kg/injection, schedule: Q01DX001 (ip), vehicle: saline
  T/C: 94 % of control
endpoint: mean survival time, dose: 200.0 mg/kg/injection, schedule: Q04DX003 (ip), vehicle: saline
  T/C: 98 % of control
endpoint: mean survival time, dose: 400.0 mg/kg/injection, schedule: Q01DX001 (ip), vehicle: saline
  T/C: 105 % of control

## COC(=O)N1C=C2C(C)=CC1C(C#N)(C#N)C2(C#N)C#N (configuration not stated)
endpoint: mean survival time, dose: 10.0 mg/kg/injection, schedule: Q01DX001 (ip), vehicle: saline
  T/C: 105 % of control and 87 % of control
endpoint: mean survival time, dose: 40.0 mg/kg/injection, schedule: Q01DX001 (ip), vehicle: saline
  T/C: 98 % of control

## COc1ccc(C(=S)N(CC(C)C)c2ccccc2)cc1
endpoint: mean survival time, dose: 100.0 mg/kg/injection, schedule: Q04DX003 (ip), vehicle: Klucel (hydroxypropylcellulose) (HPC)
  T/C: 94 % of control
endpoint: mean survival time, dose: 200.0 mg/kg/injection, schedule: Q04DX003 (ip), vehicle: Klucel (hydroxypropylcellulose) (HPC)
  T/C: 95 % of control
endpoint: mean survival time, dose: 400.0 mg/kg/injection, schedule: Q04DX003 (ip), vehicle: Klucel (hydroxypropylcellulose) (HPC)
  T/C: 94 % of control

## CC(=O)[O][Hg][c]1c(N)c(Cl)cc(C)c1F
endpoint: mean survival time, dose: 10.0 mg/kg/injection, schedule: Q01DX001 (ip), vehicle: Klucel (hydroxypropylcellulose) (HPC)
  T/C: 101 % of control
endpoint: mean survival time, dose: 20.0 mg/kg/injection, schedule: Q01DX001 (ip), vehicle: Klucel (hydroxypropylcellulose) (HPC)
  T/C: 86 % of control
